Measured values: patent US20240270740A1, “INHIBITORS OF CYCLIC GMP-AMP SYNTHASE AND USES THEREOF” (Ventus Therapeutics U.S., Inc., priority 2022, published 2024)

Key:
hcGAS [1] = molecular target: T1, hcGAS (Homo sapiens, UniProt Q8N884); experiment: hcGAS Kinase-Glo assay (ATP depletion); type: biochemical; conditions: 40 nM hcGAS, 100 μM ATP, 100 μM GTP, 25 nM dsDNA, 3 h incubation
Method in brief: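 Human cGAS activity measured indirectly as ATP depletion by Kinase-Glo luminescence, following the Lama et al. method with modified conditions. Output is IC50, binned into potency categories.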

hcGAS [2] = molecular target: T1, hcGAS; experiment: hcGAS LCMS assay (direct measurement of cGAMP production); type: biochemical; conditions: 0.5 nM hcGAS, 100 μM ATP, 100 μM GTP, 25 nM dsDNA, 4 h incubation
Method in brief: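 Direct LC/MS readout of cGAMP formed: 4-h enzyme–substrate incubation with compound, stopped by acetonitrile/water quench carrying isotope-labelled cGAMP (0.15 mM) as standard. Potency reported as IC50 ranges.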

T1 sequence (Q8N884 whole entry): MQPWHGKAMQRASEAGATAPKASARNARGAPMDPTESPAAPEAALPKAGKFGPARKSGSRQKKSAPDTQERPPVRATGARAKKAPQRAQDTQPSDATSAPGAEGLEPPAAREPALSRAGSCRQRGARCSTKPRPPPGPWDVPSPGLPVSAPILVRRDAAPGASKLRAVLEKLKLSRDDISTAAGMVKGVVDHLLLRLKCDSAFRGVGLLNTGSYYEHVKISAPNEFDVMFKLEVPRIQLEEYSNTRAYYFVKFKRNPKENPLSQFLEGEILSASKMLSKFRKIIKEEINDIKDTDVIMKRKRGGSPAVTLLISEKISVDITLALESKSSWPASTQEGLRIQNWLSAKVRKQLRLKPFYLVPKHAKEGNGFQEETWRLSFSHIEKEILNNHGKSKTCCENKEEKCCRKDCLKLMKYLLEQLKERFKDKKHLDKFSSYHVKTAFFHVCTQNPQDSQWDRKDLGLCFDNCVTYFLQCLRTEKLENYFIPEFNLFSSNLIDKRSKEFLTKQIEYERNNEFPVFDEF

| SMILES | IC50 (hcGAS [1]) | IC50 (hcGAS [2]) |
| --- | --- | --- |
| COc1c(NCCO)cc(C(=O)Nc2nnc(-n3nccc3C)s2)oc1=O [Compound 130, 4-((2-hydroxyethyl)amino)-3-methoxy-N-(5-(5-methyl-1H-pyrazol-1-yl)-1,3,4-thiadiazol-2-yl)-2-oxo-2H-pyran-6-carboxamide] | 30 to 100 nM | 20 to 60 nM |
| COCCNc1cc(C(=O)Nc2nnc(-c3sccc3Cl)s2)oc(=O)c1OC [Compound 146, N-[5-(3-chlorothiophen-2-yl)-1,3,4-thiadiazol-2-yl]-5-methoxy-4-[(2-methoxyethyl)amino]-6-oxopyran-2-carboxamide] | 10 to 30 nM | 5 to 20 nM |
| COc1c(N2C[C@H](OC)[C@@H](OC)C2)cc(C(=O)Nc2nnc(-n3nccc3C)s2)oc1=O (racemic) [Rac-92, 4-((3S,4S)-3,4-dimethoxypyrrolidin-1-yl)-3-methoxy-N-(5-(5-methyl-1H-pyrazol-1-yl)-1,3,4-thiadiazol-2-yl)-2-oxo-2H-pyran-6-carboxamide] | 10 to 30 nM | 5 to 20 nM |
| COc1c(N2C[C@H](OC)[C@@H](O)C2)cc(C(=O)Nc2nnc(-n3nccc3C)s2)oc1=O (racemic) [Rac-91, 4-((3S,4S)-3-hydroxy-4-methoxypyrrolidin-1-yl)-3-methoxy-N-(5-(5-methyl-1H-pyrazol-1-yl)-1,3,4-thiadiazol-2-yl)-2-oxo-2H-pyran-6-carboxamide] | < 10 nM | 5 to 20 nM |
| COc1c(N[C@H]2CC[C@H](O)C2)cc(C(=O)Nc2nnc(-n3nccc3C)s2)oc1=O (racemic) [Rac-6, 4-(((1S,3S)-3-hydroxycyclopentyl)amino)-3-methoxy-N-(5-(5-methyl-1H-pyrazol-1-yl)-1,3,4-thiadiazol-2-yl)-2-oxo-2H-pyran-6-carboxamide] | 10 to 30 nM | 5 to 20 nM |
| COc1c(N(C)C)cc(C(=O)Nc2nnc(-n3nccc3C)s2)oc1=O [Compound 106, 4-(dimethylamino)-3-methoxy-N-(5-(5-methyl-1H-pyrazol-1-yl)-1,3,4-thiadiazol-2-yl)-2-oxo-2H-pyran-6-carboxamide] | 30 to 100 nM | 20 to 60 nM |
| COc1c(NCC(C)(C)OC)cc(C(=O)Nc2nnc(-n3nccc3C)s2)oc1=O [Compound 120, 3-methoxy-4-((2-methoxy-2-methylpropyl)amino)-N-(5-(5-methyl-1H-pyrazol-1-yl)-1,3,4-thiadiazol-2-yl)-2-oxo-2H-pyran-6-carboxamide] | 10 to 30 nM | 5 to 20 nM |
| COc1c(NC23CC(OC)(C2)C3)cc(C(=O)Nc2nnc(-n3nccc3C)s2)oc1=O [Compound 111, 3-methoxy-4-((3-methoxybicyclo[1.1.1]pentan-1-yl)amino)-N-(5-(5-methyl-1H-pyrazol-1-yl)-1,3,4-thiadiazol-2-yl)-2-oxo-2H-pyran-6-carboxamide] | 10 to 30 nM | 5 to 20 nM |
| COc1c(N2C[C@H](OC)[C@H](OC)C2)cc(C(=O)Nc2nnc(-n3nccc3C)s2)oc1=O [Compound 59, 4-((3S,4R)-3,4-dimethoxypyrrolidin-1-yl)-3-methoxy-N-R(5-(5-methyl-1H-pyrazol-1-yl)-1,3,4-thiadiazol-2-yl)-2-oxo-2H-pyran-6-carboxamide] | 10 to 30 nM | 5 to 20 nM |
| COc1c(N[C@@H]2CCC[C@@H]2O)cc(C(=O)Nc2nnc(-n3nccc3C)s2)oc1=O [Compound 112, 4-(((1R,2S)-2-hydroxycyclopentyl)amino)-3-methoxy-N-(5-(5-methyl-1H-pyrazol-1-yl)-1,3,4-thiadiazol-2-yl)-2-oxo-2H-pyran-6-carboxamide] | < 10 nM | < 5 nM |
| COc1c(NCc2ccccc2)cc(C(=O)Nc2nnc(-n3nccc3C)s2)oc1=O [Compound 103, 4-(benzylamino)-3-methoxy-N-(5-(5-methyl-1H-pyrazol-1-yl)-1,3,4-thiadiazol-2-yl)-2-oxo-2H-pyran-6-carboxamide] | 30 to 100 nM | 5 to 20 nM |
| COC[C@H](C)Nc1cc(C(=O)Nc2nnc(-n3nccc3C)s2)oc(=O)c1OC [Compound 64, (S)-3-methoxy-4-((1-methoxypropan-2-yl)amino)-N-(5-(5-methyl-1H-pyrazol-1-yl)-1,3,4-thiadiazol-2-yl)-2-oxo-2H-pyran-6-carboxamide] | 30 to 100 nM | 20 to 60 nM |
| COc1c(N[C@@H]2CC[C@H]2OC)cc(C(=O)Nc2nnc(-n3nccc3C)s2)oc1=O (racemic) [Rac-36, 3-methoxy-4-(((1R,2R)-2-methoxycyclobutyl)amino)-N-(5-(5-methyl-1H-pyrazol-1-yl)-1,3,4-thiadiazol-2-yl)-2-oxo-2H-pyran-6-carboxamide] | 10 to 30 nM | 5 to 20 nM |
| COc1c(N[C@H]2CCS(=O)(=O)C2)cc(C(=O)Nc2nnc(-n3nccc3C)s2)oc1=O [Compound 62, (S)-4-((1,1-dioxidotetrahydrothiophen-3-yl)amino)-3-methoxy-N-(5-(5-methyl-1H-pyrazol-1-yl)-1,3,4-thiadiazol-2-yl)-2-oxo-2H-pyran-6-carboxamide] | 10 to 30 nM | 5 to 20 nM |
| COc1c(N[C@@H]2CCOC2)cc(C(=O)Nc2nnc(-n3nccc3C)s2)oc1=O [Compound 184, (R)-3-methoxy-N-(5-(5-methyl-1H-pyrazol-1-yl)-1,3,4-thiadiazol-2-yl)-2-oxo-4-((tetrahydrofuran-3-yl)amino)-2H-pyran-6-carboxamide] | 30 to 100 nM | 20 to 60 nM |
| COc1c(NC23CC(C2)C3)cc(C(=O)Nc2nnc(-c3c(Cl)ccn3C)s2)oc1=O [Compound 41, 4-{bicyclo[1.1.1]pentan-1-ylamino}-N-[5-(3-chloro-1-methylpyrrol-2-yl)-1,3,4-thiadiazol-2-yl]-5-methoxy-6-oxopyran-2-carboxamide] | < 10 nM | < 5 nM |
| COc1c(N[C@H]2CCOC2)cc(C(=O)Nc2nnc(-n3nccc3C)s2)oc1=O [Compound 185, (S)-3-methoxy-N-(5-(5-methyl-1H-pyrazol-1-yl)-1,3,4-thiadiazol-2-yl)-2-oxo-4-((tetrahydrofuran-3-yl)amino)-2H-pyran-6-carboxamide] | 30 to 100 nM | 5 to 20 nM |
| COc1c(N[C@@H]2CCC[C@@H]2O)cc(C(=O)Nc2nnc(-c3sccc3Cl)s2)oc1=O (racemic) [Rac-7, N-(5-(3-chlorothiophen-2-yl)-1,3,4-thiadiazol-2-yl)-4-(((cis)-2-hydroxycyclopentyl)amino)-3-methoxy-2-oxo-2H-pyran-6-carboxamide] | < 10 nM | < 5 nM |
| COCCNc1cc(C(=O)Nc2nnc(-n3nccc3C)s2)oc(=O)c1OC [Compound 75, 3-methoxy-4-((2-methoxyethyl)amino)-N-(5-(5-methyl-1H-pyrazol-1-yl)-1,3,4-thiadiazol-2-yl)-2-oxo-2H-pyran-6-carboxamide] | 30 to 100 nM | 5 to 20 nM |
| COc1c(NCCC#N)cc(C(=O)Nc2nnc(-n3nccc3C)s2)oc1=O [Compound 176, 4-((2-cyanoethyl)amino)-3-methoxy-N-(5-(5-methyl-1H-pyrazol-1-yl)-1,3,4-thiadiazol-2-yl)-2-oxo-2H-pyran-6-carboxamide] | 10 to 30 nM | 5 to 20 nM |
| COC[C@@H]1CCN(c2cc(C(=O)Nc3nnc(-n4nccc4C)s3)oc(=O)c2OC)C1 [Compound 1, (R)-3-methoxy-4-(3-(methoxymethyl)pyrrolidin-1-yl)-N-(5-(5-methyl-1H-pyrazol-1-yl)-1,3,4-thiadiazol-2-yl)-2-oxo-2H-pyran-6-carboxamide] | 10 to 30 nM | 5 to 20 nM |
